≈ marks a conversion by molar mass, not a printed value.
Tests used:
[1] = tested on: H. pylori; assay: Antimicrobial activity test 2: time for sterilizing H. pylori (viable cell count in Brucella broth); type: cell-based, Helicobacter pylori
Description: A solution of the test compound was added to Brucella broth containing 5% fetal bovine serum, cultured under slightly aerobic conditions at 37° C., and the vial microbe cell number in Brucella agar containing 7% horse blood was counted at predetermined intervals. The above compound (1) was dissolved in a 1% aqueous solution of […] (DMSO), and the above compound (2) was dissolved in water to prepare a solution of each test compound. “cfu” in Tables and Figures means “colony forming unit”.

[2] = tested on: H. pylori; assay: Antimicrobial activity test 5: oxethazaine in combination with compound (IV) (lansoprazole), checker board method; type: cell-based, Helicobacter pylori
From the text: The effect of oxethazaine used in combination with compound (IV) (lansoprazole) was examined in the same manner as in antimicrobial activity test 1, using the checker board method.
Hereinafter, the results are shown for each strain in the same manner as in antimicrobial activity test 3.

[3] = tested on: Gram-positive bacteria; assay: Antimicrobial activity (MIC) of oxethazaine and structure analogues against Gram-positive bacteria; type: cell-based

SMILES: CN(C(=O)CN(CCO)CC(=O)N(C)C(C)(C)Cc1ccccc1)C(C)(C)Cc1ccccc1 [Oxethazaine, 2,2′-[(2-hydroxyethyl)amino]bis[N-(1,1-dimethyl-2-phenylethyl)-N-methylacetamide]]
- Viable microbe cell number ([1]; EH12, 1 MIC, 0 h): 5.60 log10cfu/ml
- Viable microbe cell number ([1]; EH12, 1 MIC, 3 h): 5.67 log10cfu/ml
- Viable microbe cell number ([1]; EH12, 1 MIC, 6 h): 5.61 log10cfu/ml
- Viable microbe cell number ([1]; EH12, 1 MIC, 9 h): 5.68 log10cfu/ml
- Viable microbe cell number ([1]; EH12, 1 MIC, 24 h): 4.51 log10cfu/ml
- Viable microbe cell number ([1]; EH12, 2 MIC, 0 h): 5.60 log10cfu/ml
- Viable microbe cell number ([1]; EH12, 2 MIC, 3 h): 1.78 log10cfu/ml
- Viable microbe cell number ([1]; EH12, 2 MIC, 6 h): 0 log10cfu/ml
- Viable microbe cell number ([1]; EH12, 2 MIC, 9 h): 0 log10cfu/ml
- Viable microbe cell number ([1]; EH12, 2 MIC, 24 h): 0 log10cfu/ml
- Viable microbe cell number ([1]; EH12, 4 MIC, 0 h): 5.60 log10cfu/ml
- Viable microbe cell number ([1]; EH12, 4 MIC, 3 h): 0 log10cfu/ml
- Viable microbe cell number ([1]; EH12, 4 MIC, 6 h): 0 log10cfu/ml
- Viable microbe cell number ([1]; EH12, 4 MIC, 9 h): 0 log10cfu/ml
- Viable microbe cell number ([1]; EH12, 4 MIC, 24 h): 0 log10cfu/ml
- Viable microbe cell number ([1]; EH12, ½ MIC, 0 h): 5.60 log10cfu/ml
- Viable microbe cell number ([1]; EH12, ½ MIC, 3 h): 5.77 log10cfu/ml
- Viable microbe cell number ([1]; EH12, ½ MIC, 6 h): 5.19 log10cfu/ml
- Viable microbe cell number ([1]; EH12, ½ MIC, 9 h): 5.71 log10cfu/ml
- Viable microbe cell number ([1]; EH12, ½ MIC, 24 h): 5.27 log10cfu/ml
- sterilization curve ([1]; FIGS. 1 to 4, compared with the antibiotic): rapidly dropping sterilization curve
- Viable microbe cell number ([1]; NCTC 11637, 1 MIC, 0 h): 5.70 log10cfu/ml
- Viable microbe cell number ([1]; NCTC 11637, 1 MIC, 3 h): 5.24 log10cfu/ml
- Viable microbe cell number ([1]; NCTC 11637, 1 MIC, 6 h): 4.98 log10cfu/ml
- Viable microbe cell number ([1]; NCTC 11637, 1 MIC, 9 h): 4.64 log10cfu/ml
- Viable microbe cell number ([1]; NCTC 11637, 1 MIC, 24 h): 4.30 log10cfu/ml
- Viable microbe cell number ([1]; NCTC 11637, 2 MIC, 0 h): 5.70 log10cfu/ml
- Viable microbe cell number ([1]; NCTC 11637, 2 MIC, 3 h): 1.90 log10cfu/ml
- Viable microbe cell number ([1]; NCTC 11637, 2 MIC, 6 h): 0 log10cfu/ml
- Viable microbe cell number ([1]; NCTC 11637, 2 MIC, 9 h): 0 log10cfu/ml
- Viable microbe cell number ([1]; NCTC 11637, 2 MIC, 24 h): 0 log10cfu/ml
- Viable microbe cell number ([1]; NCTC 11637, 4 MIC, 0 h): 5.70 log10cfu/ml
- Viable microbe cell number ([1]; NCTC 11637, 4 MIC, 3 h): 0 log10cfu/ml
- Viable microbe cell number ([1]; NCTC 11637, 4 MIC, 6 h): 0 log10cfu/ml
- Viable microbe cell number ([1]; NCTC 11637, 4 MIC, 9 h): 0 log10cfu/ml
- Viable microbe cell number ([1]; NCTC 11637, 4 MIC, 24 h): 0 log10cfu/ml
- Viable microbe cell number ([1]; NCTC 11637, ½ MIC, 0 h): 5.70 log10cfu/ml
- Viable microbe cell number ([1]; NCTC 11637, ½ MIC, 3 h): 5.48 log10cfu/ml
- Viable microbe cell number ([1]; NCTC 11637, ½ MIC, 6 h): 5.27 log10cfu/ml
- Viable microbe cell number ([1]; NCTC 11637, ½ MIC, 9 h): 5.11 log10cfu/ml
- Viable microbe cell number ([1]; NCTC 11637, ½ MIC, 24 h): 5.51 log10cfu/ml
- Viable microbe cell number ([1]; NCTC 11916, 1 MIC, 0 h): 5.72 log10cfu/ml
- Viable microbe cell number ([1]; NCTC 11916, 1 MIC, 3 h): 6.04 log10cfu/ml
- Viable microbe cell number ([1]; NCTC 11916, 1 MIC, 6 h): 5.92 log10cfu/ml
- Viable microbe cell number ([1]; NCTC 11916, 1 MIC, 9 h): 5.84 log10cfu/ml
- Viable microbe cell number ([1]; NCTC 11916, 1 MIC, 24 h): 4.67 log10cfu/ml
- Viable microbe cell number ([1]; NCTC 11916, 2 MIC, 0 h): 5.77 log10cfu/ml
- Viable microbe cell number ([1]; NCTC 11916, 2 MIC, 3 h): 3.63 log10cfu/ml
- Viable microbe cell number ([1]; NCTC 11916, 2 MIC, 6 h): 2.83 log10cfu/ml
- Viable microbe cell number ([1]; NCTC 11916, 2 MIC, 9 h): 2.61 log10cfu/ml
- Viable microbe cell number ([1]; NCTC 11916, 2 MIC, 24 h): 0 log10cfu/ml
- Viable microbe cell number ([1]; NCTC 11916, 4 MIC, 0 h): 5.77 log10cfu/ml
- Viable microbe cell number ([1]; NCTC 11916, 4 MIC, 3 h): 0 log10cfu/ml
- Viable microbe cell number ([1]; NCTC 11916, 4 MIC, 6 h): 0 log10cfu/ml
- Viable microbe cell number ([1]; NCTC 11916, 4 MIC, 9 h): 0 log10cfu/ml
- Viable microbe cell number ([1]; NCTC 11916, 4 MIC, 24 h): 0 log10cfu/ml
- Viable microbe cell number ([1]; NCTC 11916, ½ MIC, 0 h): 5.77 log10cfu/ml
- Viable microbe cell number ([1]; NCTC 11916, ½ MIC, 3 h): 5.70 log10cfu/ml
- Viable microbe cell number ([1]; NCTC 11916, ½ MIC, 6 h): 6.35 log10cfu/ml
- Viable microbe cell number ([1]; NCTC 11916, ½ MIC, 9 h): 6.32 log10cfu/ml
- Viable microbe cell number ([1]; NCTC 11916, ½ MIC, 24 h): 6.44 log10cfu/ml
- effect of combined use ([2]; strain 90-392): 90-392 (additive effect)
- effect of combined use ([2]; strain 90-397): 90-397 (synergism)
- effect of combined use ([2]; strain 90-414): 90-414 (synergism)
- effect of combined use ([2]; strain 90-414(1)): 90-414(1) (synergism)
- MIC ([3]; Enterococcus faecalis, E. faecalis RIMD 3116001): 25 µg/mL (≈ 53.5 µM)
- MIC ([3]; Staphylococcus aureus, FDA209, S. aureus FDA 209-P): 12.5 µg/mL (≈ 26.7 µM)
- MIC ([3]; Staphylococcus epidermidis, ATCC12228, S. epidermidis ATCC 12228): 6.25 µg/mL (≈ 13.4 µM)
- effect on Gram-positive bacteria ([3]; conclusion): excellent effect

Source: patent US6426369B1, “Oxethazaine as antimicrobial agent” (Eisai Co., Ltd., priority 1997, dated 2002)
